In ChEMBL document CHEMBL1159156, “Design, synthesis and biological activity of some 4-DAMP- related compounds” (Bioorg Med Chem Lett, 1995):

Assays:
[1] = biological target: Muscarinic acetylcholine receptor M3 (Cavia porcellus, UniProt Q8VH26); test: Evaluation of antagonistic affinity against muscarinic receptor (M3) in guinea pig ileum; assay type: functional, tissue-based; conditions: read-out: pA2 (converted)
[2] = biological target: T1, Muscarinic acetylcholine receptor M2 (Rattus norvegicus, UniProt P10980); test: Compound was tested for inhibiting [3H]N-Methyl-scopolamine Binding to Muscarinic receptor (M2) in Rat Heart
T1 sequence (P10980 whole entry): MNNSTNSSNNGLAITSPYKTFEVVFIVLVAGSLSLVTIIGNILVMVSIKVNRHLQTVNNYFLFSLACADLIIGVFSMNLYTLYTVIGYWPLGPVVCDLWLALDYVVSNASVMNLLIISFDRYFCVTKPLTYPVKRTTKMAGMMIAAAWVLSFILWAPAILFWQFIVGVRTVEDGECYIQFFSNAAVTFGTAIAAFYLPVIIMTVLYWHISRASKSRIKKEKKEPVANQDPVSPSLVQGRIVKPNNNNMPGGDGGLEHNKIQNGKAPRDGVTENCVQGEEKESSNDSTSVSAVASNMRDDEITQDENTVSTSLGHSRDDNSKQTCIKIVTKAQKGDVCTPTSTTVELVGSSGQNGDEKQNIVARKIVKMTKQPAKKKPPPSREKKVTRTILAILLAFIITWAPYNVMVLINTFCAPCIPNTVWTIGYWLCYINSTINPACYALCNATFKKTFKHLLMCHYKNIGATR

[3] = biological target: Muscarinic acetylcholine receptor M3 (Rattus norvegicus, UniProt P08483); test: Compound was tested for inhibiting [3H]N-Methyl-scopolamine Binding to Muscarinic receptor (M3) in Rat Submaxillary Gland
Sequence of Muscarinic acetylcholine receptor M3 (Rattus norvegicus, UniProt P08483) (P08483 whole entry): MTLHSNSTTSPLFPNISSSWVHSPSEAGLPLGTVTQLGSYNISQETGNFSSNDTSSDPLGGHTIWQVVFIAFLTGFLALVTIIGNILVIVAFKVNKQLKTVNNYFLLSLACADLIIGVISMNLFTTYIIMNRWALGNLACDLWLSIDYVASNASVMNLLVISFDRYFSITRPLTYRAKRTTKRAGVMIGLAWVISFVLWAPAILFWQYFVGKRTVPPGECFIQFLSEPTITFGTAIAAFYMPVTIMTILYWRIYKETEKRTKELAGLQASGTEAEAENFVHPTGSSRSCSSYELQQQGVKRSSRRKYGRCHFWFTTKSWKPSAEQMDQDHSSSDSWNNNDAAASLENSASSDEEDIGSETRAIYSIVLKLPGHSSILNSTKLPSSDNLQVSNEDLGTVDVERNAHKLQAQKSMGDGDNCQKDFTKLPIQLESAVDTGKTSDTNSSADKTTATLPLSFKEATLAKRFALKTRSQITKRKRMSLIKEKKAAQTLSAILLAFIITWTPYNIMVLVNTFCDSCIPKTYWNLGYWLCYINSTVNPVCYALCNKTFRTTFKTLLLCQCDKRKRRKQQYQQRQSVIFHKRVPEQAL

[4] = biological target: T2, Muscarinic acetylcholine receptor M1 (Rattus norvegicus, UniProt P08482); test: Compound was tested for inhibiting [3H]pirenzepine Binding to Muscarinic receptor (M1) receptor in Rat Cortex Homogenates
T2 sequence (P08482 whole entry): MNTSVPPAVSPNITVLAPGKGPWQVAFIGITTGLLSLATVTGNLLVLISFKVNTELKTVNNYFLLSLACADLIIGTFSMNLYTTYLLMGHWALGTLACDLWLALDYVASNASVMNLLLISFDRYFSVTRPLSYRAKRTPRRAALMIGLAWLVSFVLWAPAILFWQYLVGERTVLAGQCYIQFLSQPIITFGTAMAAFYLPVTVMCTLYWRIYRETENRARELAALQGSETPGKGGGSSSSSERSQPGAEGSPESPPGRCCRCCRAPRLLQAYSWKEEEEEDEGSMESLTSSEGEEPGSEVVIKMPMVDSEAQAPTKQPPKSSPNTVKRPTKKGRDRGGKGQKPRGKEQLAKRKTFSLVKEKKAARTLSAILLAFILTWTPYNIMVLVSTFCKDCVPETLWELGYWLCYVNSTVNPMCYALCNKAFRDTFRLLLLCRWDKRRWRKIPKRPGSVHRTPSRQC

[5] = biological target: Muscarinic acetylcholine receptor M2 (Cavia porcellus); test: Evaluation of antagonistic affinity against muscarinic receptor (M2) in guinea pig left atria; conditions: read-out: pA2 (converted)
[6] = biological target: T3, Muscarinic acetylcholine receptor M4 (Homo sapiens, UniProt P08173); test: Compound was tested for binding affinity against Muscarinic acetylcholine receptor M4 in NG 108-15 cell homogenates; assay type: cell-based
T3 sequence (P08173 whole entry): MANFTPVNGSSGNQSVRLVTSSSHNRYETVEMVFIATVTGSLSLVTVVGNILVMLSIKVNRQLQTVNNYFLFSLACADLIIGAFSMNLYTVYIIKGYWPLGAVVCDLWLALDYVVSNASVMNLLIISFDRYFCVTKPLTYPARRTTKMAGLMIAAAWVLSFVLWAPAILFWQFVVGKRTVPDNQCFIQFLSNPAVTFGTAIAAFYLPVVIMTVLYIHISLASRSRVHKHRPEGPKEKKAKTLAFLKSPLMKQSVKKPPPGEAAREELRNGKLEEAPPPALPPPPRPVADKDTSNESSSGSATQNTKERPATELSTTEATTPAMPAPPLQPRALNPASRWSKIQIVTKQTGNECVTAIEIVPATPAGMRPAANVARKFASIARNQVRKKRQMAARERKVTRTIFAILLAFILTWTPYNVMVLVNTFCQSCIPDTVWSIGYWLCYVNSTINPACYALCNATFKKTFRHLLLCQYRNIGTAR

Sequence of Muscarinic acetylcholine receptor M3 (Cavia porcellus, UniProt Q8VH26) (Q8VH26 whole entry): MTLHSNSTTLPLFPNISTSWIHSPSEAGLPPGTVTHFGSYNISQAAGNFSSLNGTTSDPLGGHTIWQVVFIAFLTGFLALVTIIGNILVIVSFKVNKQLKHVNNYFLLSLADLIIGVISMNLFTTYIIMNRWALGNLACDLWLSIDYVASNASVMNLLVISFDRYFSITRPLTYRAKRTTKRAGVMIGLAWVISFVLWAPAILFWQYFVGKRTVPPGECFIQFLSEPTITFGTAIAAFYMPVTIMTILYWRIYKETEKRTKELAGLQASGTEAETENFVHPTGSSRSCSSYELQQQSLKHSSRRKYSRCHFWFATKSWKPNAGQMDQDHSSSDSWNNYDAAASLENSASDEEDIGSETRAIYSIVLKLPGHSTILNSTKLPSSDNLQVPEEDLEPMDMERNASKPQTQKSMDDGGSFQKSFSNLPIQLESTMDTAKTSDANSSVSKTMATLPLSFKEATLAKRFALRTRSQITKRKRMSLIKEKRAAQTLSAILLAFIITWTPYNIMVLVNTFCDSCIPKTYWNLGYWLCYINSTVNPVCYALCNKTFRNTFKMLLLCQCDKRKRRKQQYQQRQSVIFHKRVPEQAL

| SMILES | Kb [1] [nM] | Ki [2] [nM] | Ki [3] [nM] | Ki [4] [nM] | Kb [5] [nM] | Ki [6] [nM] |
| --- | --- | --- | --- | --- | --- | --- |
| C[N+]1(C)CCC2(CC1)OC(=O)C(c1ccccc1)(c1ccccc1)O2 | 0.933 | 2.75 | 2.95 | 5.01 | 1.23 |  |
| C[N+]1(C)C2CCC1CC1(C2)OC(=O)C(c2ccccc2)(c2ccccc2)O1 (stereo in doubt; 4a) | 3.63 |  | 10.5 | 0.398 |  | 4.68 |
| C[N+]1(C)CCC(OC(=O)C(c2ccccc2)c2ccccc2)CC1 [4-DAMP] |  |  |  | 0.589 |  |  |
| C[N+]1(C)C2CCC1CC1(C2)OC(=O)C(c2ccccc2)(c2ccccc2)O1 (stereo in doubt; 4b) | 20.9 |  | 50.1 | 0.794 |  | 4.37 |
